Test results from ChEMBL document CHEMBL5365478, “Structure-Based Design and Synthesis of Stapled 10Panx1 Analogues for Use in Cardiovascular Inflammatory Diseases” (J Med Chem, 2023).
Active and inactive are the calls of the source. No cut-off for these calls is given here. Bridge positions count the residues as written; N and C are the ends. Square brackets hold non-standard residues; d marks the D form. Triazole bridges read from a SMILES are 1,4-linked. Peptide text beside a SMILES is read from it. Lys(N3) = [N-]=[N+]=NCCCC[C@H](N)C(=O)O; Orn(N3) = [N-]=[N+]=NCCC[C@H](N)C(=O)O; Hpra = C#CCC[C@H](N)C(=O)O; Pra = C#CC[C@H](N)C(=O)O; Ahx = NCCCCCC(=O)O

How the values were obtained:
[1] = target: Pannexin-1 (Mus musculus) (UniProt Q9JIP4); test: Inhibition of PANX1 in mouse B16-BL6 cells assessed as reduction in HOS-induced ATP release at 100 uM preincubated for 10 mins followed by HOS solution addition and measured after 30 mins by bioluminescence analysis; format: cell-based; details: time 40.0 min
EA.hy 926 [2] = test: Cytotoxicity against human EA.hy 926 cells at 12.5 to 100 uM incubated for 30 mins with compound in HOS solution by LDH assay; format: toxicity, cell-based; details: ea.hy 926, 0.5 h, dose 12.5-100 µM
[3] = Stability in PBS at pH 7.4 assessed as conserved alpha-helical profile at 200 uM at 20 to 90 degreeC by CD spectra analysis; format: physicochemical; details: buffer, pH 7.4, 200 µM
[4] = target: Pannexin-1 (Mus musculus) (UniProt Q9JIP4); test: Inhibition of PANX1 in mouse B16-BL6 cells assessed as reduction in HOS-induced ATP release preincubated for 10 mins followed by HOS solution addition and measured after 30 mins by bioluminescence analysis; format: cell-based; details: dose 6.25-400 µM, time 40.0 min
[5] = target: Pannexin-1 (Mus musculus) (UniProt Q9JIP4); test: Inhibition of PANX1 in mouse B16-BL6 cells assessed as reduction in HOS-induced ATP release at around 10 nM preincubated for 10 mins followed by HOS solution addition and measured after 30 mins by bioluminescence analysis; format: cell-based; details: time 40.0 min
[6] = target: Pannexin-1 (Mus musculus) (UniProt Q9JIP4); test: Inhibition of PANX1 in mouse B16-BL6 cells assessed as reduction in HOS-induced Yo-Pro-1 uptake by measuring reduction in green fluorescence at 12.5 uM preincubated for 10 mins followed by HOS solution addition and measured after 30 mins by fluorescence based analysis; format: cell-based; details: time 40.0 min
B16-BL6 [7] = test: Cytotoxicity against mouse B16-BL6 cells at 6.25 to 100 uM incubated for 30 mins with compound in HOS solution by LDH assay; format: toxicity, cell-based; details: b16-bl6, 0.5 h, dose 6.25-100 µM
[8] = target: Pannexin-1 (Rattus norvegicus) (UniProt P60570); test: Inhibition of PANX1 in rat H9C2 cells assessed as reduction in HOS-induced ATP release at 12.5 to 100 uM preincubated for 10 mins followed by HOS solution addition and measured after 30 mins by bioluminescence analysis; format: cell-based; details: dose 12.5-100 µM, time 40.0 min
[9] = target: Pannexin-1 (Homo sapiens) (UniProt Q96RD7); test: Inhibition of PANX1 in human EA.hy 926 cells assessed as reduction in HOS-induced ATP release at 12.5 to 100 uM preincubated for 10 mins followed by HOS solution addition and measured after 30 mins by bioluminescence analysis; format: cell-based; details: dose 12.5-100 µM, time 40.0 min
EA.hy 926 [10] = test: Antiinflammatory activity in TNF-alpha stimulated human EA.hy926 cells cocultured with human THP-1 cells assessed as inhibition of monocyte adhesion at 100 uM incubated for 15 mins followed by adhesion for 2 hrs; format: functional, cell-based; details: time 135.0 min
[11] = target: Pannexin-1 (Homo sapiens) (UniProt Q96RD7); test: Inhibition of PANX1 in human EA.hy 926 cells assessed as reduction in HOS-induced ATP release preincubated for 10 mins followed by HOS solution addition and measured after 30 mins by bioluminescence analysis; format: cell-based; details: time 40.0 min
B16-BL6 [12] = test: Cytotoxicity against mouse B16-BL6 cells at 1.56 to 100 uM incubated for 30 mins with compound in HOS solution by LDH assay; format: toxicity, cell-based; details: b16-bl6, 0.5 h, dose 1.56-100 µM

Sequence of Pannexin-1 (Mus musculus) (Q9JIP4 whole entry): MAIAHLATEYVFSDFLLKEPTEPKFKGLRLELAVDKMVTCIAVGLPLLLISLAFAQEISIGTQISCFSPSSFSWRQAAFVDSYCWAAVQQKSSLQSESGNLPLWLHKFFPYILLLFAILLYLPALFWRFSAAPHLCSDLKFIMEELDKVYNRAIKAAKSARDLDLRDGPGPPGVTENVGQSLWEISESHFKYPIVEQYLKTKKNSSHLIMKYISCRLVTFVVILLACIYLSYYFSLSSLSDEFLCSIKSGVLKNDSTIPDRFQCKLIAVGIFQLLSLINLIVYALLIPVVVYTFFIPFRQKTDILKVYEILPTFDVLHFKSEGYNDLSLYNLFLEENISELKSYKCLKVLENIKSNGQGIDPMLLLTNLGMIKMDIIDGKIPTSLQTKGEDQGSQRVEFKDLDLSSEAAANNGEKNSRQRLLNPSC
Sequence of Pannexin-1 (Homo sapiens) (Q96RD7 whole entry): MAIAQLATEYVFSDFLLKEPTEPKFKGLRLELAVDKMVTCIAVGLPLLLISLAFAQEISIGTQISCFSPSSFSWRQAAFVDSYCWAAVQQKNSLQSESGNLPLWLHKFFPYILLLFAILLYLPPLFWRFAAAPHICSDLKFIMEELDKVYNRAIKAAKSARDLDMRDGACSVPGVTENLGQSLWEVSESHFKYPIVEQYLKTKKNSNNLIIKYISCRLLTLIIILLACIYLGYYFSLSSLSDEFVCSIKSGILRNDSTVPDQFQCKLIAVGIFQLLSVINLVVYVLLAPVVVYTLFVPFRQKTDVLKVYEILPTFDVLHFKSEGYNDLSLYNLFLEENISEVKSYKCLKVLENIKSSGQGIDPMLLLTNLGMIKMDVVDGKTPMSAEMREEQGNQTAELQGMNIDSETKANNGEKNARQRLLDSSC
Sequence of Pannexin-1 (Rattus norvegicus) (P60570 whole entry): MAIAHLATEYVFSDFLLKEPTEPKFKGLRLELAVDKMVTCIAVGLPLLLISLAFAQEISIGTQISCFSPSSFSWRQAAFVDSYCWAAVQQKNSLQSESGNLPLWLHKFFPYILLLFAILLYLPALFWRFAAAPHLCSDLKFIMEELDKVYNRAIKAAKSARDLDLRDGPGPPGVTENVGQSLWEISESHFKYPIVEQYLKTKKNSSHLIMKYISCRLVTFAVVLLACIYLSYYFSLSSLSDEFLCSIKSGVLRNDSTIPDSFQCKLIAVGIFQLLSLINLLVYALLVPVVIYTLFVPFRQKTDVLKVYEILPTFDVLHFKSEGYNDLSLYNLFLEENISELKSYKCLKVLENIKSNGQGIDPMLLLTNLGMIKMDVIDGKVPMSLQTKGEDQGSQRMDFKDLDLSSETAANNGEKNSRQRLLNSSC

| inhibition [1] | SMILES | Activity (B16-BL6 [12]) | further results |
| --- | --- | --- | --- |
| inactive | CC(=O)N[C@@H](CO)C(=O)N[C@@H](Cc1c[nH]c2ccccc12)C(=O)N[C@@H](CCCNC(=N)N)C(=O)N[C@@H](CCC(N)=O)C(=O)N[C@@H](C)C(=O)N[C@@H](C)C(=O)N[C@@H](Cc1ccccc1)C(=O)N[C@H]1Cc2cn(nn2)CCC[C@@H](C(N)=O)NC(=O)[C@H](Cc2ccc(O)cc2)NC(=O)[C@H](CO)NC(=O)[C@H](CC(=O)O)NC1=O (Ac-SWRQAAF[Pra]DSY[Orn(N3)]-NH2; triazole 8-12) | – | – |
| – | CC(=O)N[C@@H](CO)C(=O)N[C@@H](Cc1c[nH]c2ccccc12)C(=O)N[C@@H](CCCNC(=N)N)C(=O)N[C@@H](CCC(N)=O)C(=O)N[C@@H](C)C(=O)N[C@H]1Cc2cn(nn2)CCCC[C@@H](C(=O)N[C@@H](Cc2ccc(O)cc2)C(N)=O)NC(=O)[C@H](CC(=O)O)NC(=O)[C@H](C(C)C)NC(=O)[C@H](Cc2ccccc2)NC1=O | – | Activity (EA.hy 926 [2]): Non-Toxic; Stability [3]: Stable; inhibition [4]: Dose-Dependent Effect; inhibition [5]: inactive; inhibition [6]: inactive; Activity (B16-BL6 [7]): Non-Toxic; inhibition [8]: inactive; inhibition [9]: Active; inhibition (EA.hy 926 [10]): Active |
| inactive | CC(=O)N[C@@H](CO)C(=O)N[C@@H](Cc1c[nH]c2ccccc12)C(=O)N[C@@H](CCCNC(=N)N)C(=O)N[C@@H](CCC(N)=O)C(=O)N[C@@H](C)C(=O)N[C@@H](C)C(=O)N[C@@H](Cc1ccccc1)C(=O)N[C@H]1Cc2cn(nn2)CCCC[C@@H](C(N)=O)NC(=O)[C@H](Cc2ccc(O)cc2)NC(=O)[C@H](CO)NC(=O)[C@H](CC(=O)O)NC1=O (Ac-SWRQAAF[Pra]DSY[Lys(N3)]-NH2; triazole 8-12) | – | – |
| – | CC(C)[C@H](NC(=O)[C@H](Cc1ccccc1)NC(=O)[C@H](C)NC(=O)[C@H](C)NC(=O)[C@H](CCC(N)=O)NC(=O)[C@H](CCCNC(=N)N)NC(=O)[C@H](Cc1c[nH]c2ccccc12)NC(=O)CCCCCNC(=O)[C@@H](N)CCCCN)C(=O)N[C@@H](CC(=O)O)C(=O)N[C@@H](CO)C(=O)N[C@@H](Cc1ccc(O)cc1)C(=O)O (H-K[Ahx]WRQAAFVDSY-OH) | – | inhibition [11]: Active |
| – | CC(=O)N[C@H]1Cc2cn(nn2)CCCC[C@@H](C(=O)N[C@@H](C)C(=O)N[C@@H](Cc2ccccc2)C(=O)N[C@H](C(=O)N[C@@H](CC(=O)O)C(=O)N[C@@H](CO)C(=O)N[C@@H](Cc2ccc(O)cc2)C(N)=O)C(C)C)NC(=O)[C@H](CCC(N)=O)NC(=O)[C@H](CCCNC(=N)N)NC(=O)[C@H](Cc2c[nH]c3ccccc23)NC1=O | – | Activity (EA.hy 926 [2]): Non-Toxic; inhibition [4]: Dose-Dependent Effect; inhibition [6]: inactive; Activity (B16-BL6 [7]): Non-Toxic; inhibition [8]: inactive; inhibition [9]: Active; inhibition (EA.hy 926 [10]): Active |
| Active | CC(=O)N[C@@H](CO)C(=O)N[C@@H](Cc1c[nH]c2ccccc12)C(=O)N[C@@H](CCCNC(=N)N)C(=O)N[C@@H](CCC(N)=O)C(=O)N[C@@H](C)C(=O)N[C@H]1CCc2cn(nn2)CCCC[C@@H](C(=O)N[C@@H](Cc2ccc(O)cc2)C(N)=O)NC(=O)[C@H](CC(=O)O)NC(=O)[C@H](C(C)C)NC(=O)[C@H](Cc2ccccc2)NC1=O (Ac-SWRQA[Hpra]FVD[Lys(N3)]Y-NH2; triazole 6-10) | Non-Toxic | – |
| inactive | CC(=O)N[C@@H](CO)C(=O)N[C@@H](Cc1c[nH]c2ccccc12)C(=O)N[C@@H](CCCNC(=N)N)C(=O)N[C@@H](CCC(N)=O)C(=O)N[C@@H](C)C(=O)N[C@@H](C)C(=O)N[C@H]1Cc2cn(nn2)CCCC[C@@H](C(=O)O)NC(=O)[C@H](CO)NC(=O)[C@H](CC(=O)O)NC(=O)[C@H](C(C)C)NC1=O (Ac-SWRQAA[Pra]VDS[Lys(N3)]-OH; triazole 7-11) | – | – |
| inactive | CC(=O)N[C@H]1Cc2cn(nn2)CCC[C@@H](C(=O)N[C@@H](C)C(=O)N[C@@H](Cc2ccccc2)C(=O)N[C@H](C(=O)N[C@@H](CC(=O)O)C(=O)N[C@@H](CO)C(=O)N[C@@H](Cc2ccc(O)cc2)C(N)=O)C(C)C)NC(=O)[C@H](CCC(N)=O)NC(=O)[C@H](CCCNC(=N)N)NC(=O)[C@H](Cc2c[nH]c3ccccc23)NC1=O (Ac-[Pra]WRQ[Orn(N3)]AFVDSY-NH2; triazole 1-5) | – | – |
| Active | CC(=O)N[C@H]1CCc2cn(nn2)CCCC[C@@H](C(=O)N[C@@H](C)C(=O)N[C@@H](Cc2ccccc2)C(=O)N[C@H](C(=O)N[C@@H](CC(=O)O)C(=O)N[C@@H](CO)C(=O)N[C@@H](Cc2ccc(O)cc2)C(N)=O)C(C)C)NC(=O)[C@H](CCC(N)=O)NC(=O)[C@H](CCCNC(=N)N)NC(=O)[C@H](Cc2c[nH]c3ccccc23)NC1=O (Ac-[Hpra]WRQ[Lys(N3)]AFVDSY-NH2; triazole 1-5) | Non-Toxic | – |
| inactive | CC(=O)N[C@@H](CO)C(=O)N[C@@H](Cc1c[nH]c2ccccc12)C(=O)N[C@@H](CCCNC(=N)N)C(=O)N[C@@H](CCC(N)=O)C(=O)N[C@@H](C)C(=O)N[C@H]1Cc2cn(nn2)CCC[C@@H](C(=O)N[C@@H](Cc2ccc(O)cc2)C(N)=O)NC(=O)[C@H](CC(=O)O)NC(=O)[C@H](C(C)C)NC(=O)[C@H](Cc2ccccc2)NC1=O (Ac-SWRQA[Pra]FVD[Orn(N3)]Y-NH2; triazole 6-10) | – | – |
| inactive | CC(=O)N[C@H]1Cc2cn(nn2)CCCC[C@H](C(=O)N[C@@H](C)C(=O)N[C@@H](Cc2ccccc2)C(=O)N[C@H](C(=O)N[C@@H](CC(=O)O)C(=O)N[C@@H](CO)C(=O)N[C@@H](Cc2ccc(O)cc2)C(N)=O)C(C)C)NC(=O)[C@H](CCC(N)=O)NC(=O)[C@H](CCCNC(=N)N)NC(=O)[C@H](Cc2c[nH]c3ccccc23)NC1=O | Non-Toxic | – |
| Active | CC(=O)N[C@@H](CO)C(=O)N[C@@H](Cc1c[nH]c2ccccc12)C(=O)N[C@@H](CCCNC(=N)N)C(=O)N[C@@H](CCC(N)=O)C(=O)N[C@@H](C)C(=O)N[C@H]1CCCCn2cc(nn2)C[C@@H](C(=O)N[C@@H](Cc2ccc(O)cc2)C(N)=O)NC(=O)[C@H](CC(=O)O)NC(=O)[C@H](C(C)C)NC(=O)[C@H](Cc2ccccc2)NC1=O (Ac-SWRQA[Lys(N3)]FVD[Pra]Y-NH2; triazole 6-10) | Non-Toxic | – |
| inactive | CC(=O)N[C@@H](CO)C(=O)N[C@@H](Cc1c[nH]c2ccccc12)C(=O)N[C@@H](CCCNC(=N)N)C(=O)N[C@@H](CCC(N)=O)C(=O)N[C@@H](C)C(=O)N[C@@H]1Cc2cn(nn2)CCCC[C@@H](C(=O)N[C@@H](Cc2ccc(O)cc2)C(N)=O)NC(=O)[C@H](CC(=O)O)NC(=O)[C@H](C(C)C)NC(=O)[C@H](Cc2ccccc2)NC1=O | Non-Toxic | – |
| Active | CC(=O)N[C@H]1CCCCn2cc(nn2)C[C@@H](C(=O)N[C@@H](C)C(=O)N[C@@H](Cc2ccccc2)C(=O)N[C@H](C(=O)N[C@@H](CC(=O)O)C(=O)N[C@@H](CO)C(=O)N[C@@H](Cc2ccc(O)cc2)C(N)=O)C(C)C)NC(=O)[C@H](CCC(N)=O)NC(=O)[C@H](CCCNC(=N)N)NC(=O)[C@H](Cc2c[nH]c3ccccc23)NC1=O (Ac-[Lys(N3)]WRQ[Pra]AFVDSY-NH2; triazole 1-5) | Non-Toxic | – |
